# ChEMBL document CHEMBL5108009, “Positron Emission Tomography (PET) Imaging Tracers for Serotonin Receptors” (J Med Chem, 2022)
# Legend:
# [1] = target: T1, 5-hydroxytryptamine receptor 2A (Homo sapiens, UniProt P28223); assay: Binding affinity to human recombinant 5-HT2A assessed as inhibition constant
# [2] = Drug uptake in Papio anubis striatum relative to control; type: ADME, tissue-based
# [3] = Drug uptake in pig striatum relative to control; type: ADME, tissue-based, Sus scrofa; settings: in vivo
# [4] = target: T2, 5-hydroxytryptamine receptor 6 (Homo sapiens, UniProt P50406); assay: Binding affinity to human recombinant 5-HT6 receptor assessed as inhibition constant
# [5] = Drug uptake in human striatum relative to control; type: ADME, tissue-based
# [6] = target: T3, 5-hydroxytryptamine receptor 2B (Homo sapiens, UniProt P41595); assay: Binding affinity to 5-HT2B (unknown origin) assessed as inhibition constant by liquid scintillation counter analysis
# [7] = target: T4, 5-hydroxytryptamine receptor 2C (Homo sapiens, UniProt P28335); assay: Binding affinity to 5-HT2C (unknown origin) assessed as inhibition constant by liquid scintillation counter analysis
# T4 sequence (P28335 whole entry): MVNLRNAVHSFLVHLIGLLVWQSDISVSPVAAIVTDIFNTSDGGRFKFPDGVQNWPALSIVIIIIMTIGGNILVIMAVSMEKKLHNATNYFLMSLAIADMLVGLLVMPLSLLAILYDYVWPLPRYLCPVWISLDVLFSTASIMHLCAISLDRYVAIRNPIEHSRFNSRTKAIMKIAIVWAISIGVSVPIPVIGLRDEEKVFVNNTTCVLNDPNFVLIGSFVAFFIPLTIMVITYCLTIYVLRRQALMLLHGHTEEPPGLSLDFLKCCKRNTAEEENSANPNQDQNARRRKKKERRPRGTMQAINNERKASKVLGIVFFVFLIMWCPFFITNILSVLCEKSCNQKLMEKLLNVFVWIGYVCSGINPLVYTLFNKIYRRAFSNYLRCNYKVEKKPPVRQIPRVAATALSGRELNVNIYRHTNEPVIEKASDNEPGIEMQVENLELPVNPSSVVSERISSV
# [8] = target: T5, 5-hydroxytryptamine receptor 2A (Rattus norvegicus, UniProt P14842); assay: Binding affinity to rat 5-HT2A assessed as inhibition constant by liquid scintillation counter analysis
# [9] = target: 5-hydroxytryptamine receptor 7 (Rattus norvegicus, UniProt P32305); assay: Binding affinity to rat brain 5-HT7 receptor assessed as inhibition constant incubated for 60 mins; type: tissue-based
# [10] = target: T4, 5-hydroxytryptamine receptor 2C; assay: Binding affinity to human 5-HT2C assessed as inhibition constant
# [11] = Drug uptake in pig brain cortex assessed as non-displaceable binding potential; type: ADME, tissue-based, Sus scrofa; settings: in vivo
# [12] = target: T1, 5-hydroxytryptamine receptor 2A; assay: Binding affinity to human 5-HT2A assessed as inhibition constant
# [13] = Drug uptake in pig brain cortex measured at 10 to 20 mins postinjection; type: ADME, organism-based, Sus scrofa; settings: in vivo, time 10-20 min
# [14] = target: T6, 5-hydroxytryptamine receptor 7 (Homo sapiens, UniProt P34969); assay: Binding affinity to human 5-HT7 receptor transfected by pcDNA3.1(+) vector in HEK293 cells assessed as inhibition constant by Cheng-Prusoff equation analysis; type: cell-based
# [15] = target: T7, 5-hydroxytryptamine receptor 1D (Homo sapiens, UniProt P28221); assay: Binding affinity to human 5-HT1D expressed in CHO cells assessed as inhibition constant incubated for 1 hr by Cheng-Prusoff equation analysis; type: cell-based
# [16] = target: T3, 5-hydroxytryptamine receptor 2B
# [17] = Drug uptake in rat brain frontal cortex relative to control; type: ADME, tissue-based; settings: in vivo
# [18] = target: T7, 5-hydroxytryptamine receptor 1D; assay: Binding affinity to 5-HT1D (unknown origin) assessed as inhibition constant
# [19] = target: T8, 5-hydroxytryptamine receptor 1A (Homo sapiens, UniProt P08908)
# T8 sequence (P08908 whole entry): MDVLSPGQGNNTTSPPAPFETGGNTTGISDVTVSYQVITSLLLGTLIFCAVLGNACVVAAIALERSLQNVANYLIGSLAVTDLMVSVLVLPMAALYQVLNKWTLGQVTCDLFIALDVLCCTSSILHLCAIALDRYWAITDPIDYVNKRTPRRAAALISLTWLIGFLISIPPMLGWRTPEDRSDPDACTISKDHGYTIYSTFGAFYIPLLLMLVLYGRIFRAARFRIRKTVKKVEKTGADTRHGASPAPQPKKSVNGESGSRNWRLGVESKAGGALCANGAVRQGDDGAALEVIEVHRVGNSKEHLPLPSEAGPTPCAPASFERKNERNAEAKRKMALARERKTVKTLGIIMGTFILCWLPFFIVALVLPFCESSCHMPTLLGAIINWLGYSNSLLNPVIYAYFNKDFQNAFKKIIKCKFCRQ
# [20] = target: T9, 5-hydroxytryptamine receptor 1F (Homo sapiens, UniProt P30939); assay: Binding affinity to human 5-HT1F assessed as inhibition constant incubated for 10 mins by radioligand binding assay
# [21] = target: 5-hydroxytryptamine receptor 1B (Homo sapiens, UniProt P28222)
# [22] = target: T6, 5-hydroxytryptamine receptor 7
# [23] = target: T4, 5-hydroxytryptamine receptor 2C
# [24] = target: 5-hydroxytryptamine receptor 5A (Homo sapiens, UniProt P47898); assay: Binding affinity to 5-HT5A receptor (unknown origin) assessed as inhibition constant
# [25] = Drug uptake in Wistar rat frontal cortex assessed as non-displaceable binding potential at 10 MBq measured at 5 to 60 mins; type: ADME, tissue-based; settings: in vivo, time 5-60 min
# [26] = Ratio of drug uptake in Wistar rat cortex to cerebellum at 10 MBq measured at 30 mins; type: ADME, tissue-based; settings: in vivo, 0.5 h
# [27] = target: Serotonin 3 (5-HT3) receptor; assay: Binding affinity to 5-HT3 receptor (unknown origin) assessed as inhibition constant; type: protein-complex assay, Homo sapiens
# [28] = Drug uptake in human frontal cortex assessed as non-displaceable binding potential; type: ADME, tissue-based
# [29] = Ratio of drug uptake in rat cortex to cerebellum at steady state; type: ADME, tissue-based; settings: in vivo
# [30] = target: T4, 5-hydroxytryptamine receptor 2C; assay: Displacement of [3H]-mesulergine from 5-HT2C (unknown origin) assessed as inhibition constant by radioligand competitive binding assay
# [31] = In vivo binding affinity of Papio anubis baboon 5-HT2C assessed as inhibition constant measured after 1 to 21 mins postinjection; type: functional, organism-based
# [32] = target: T8, 5-hydroxytryptamine receptor 1A; assay: Displacement of [3H]-mesulergine from 5-HT1A (unknown origin) assessed as inhibition constant by radioligand competitive binding assay
# [33] = target: T3, 5-hydroxytryptamine receptor 2B; assay: Displacement of [3H]-mesulergine from 5-HT2B (unknown origin) assessed as inhibition constant by radioligand competitive binding assay
# [34] = target: T1, 5-hydroxytryptamine receptor 2A; assay: Antagonist activity at human 5-HT2A receptor incubated for 3 hrs by radioligand binding assay; type: functional
# [35] = target: T1, 5-hydroxytryptamine receptor 2A; assay: Inverse agonist activity at human 5-HT2A receptor incubated for 3 hrs by radioligand binding assay; type: functional
# [36] = target: T6, 5-hydroxytryptamine receptor 7; assay: Binding affinity to 5-HT7 receptor (unknown origin) assessed as inhibition constant
# [37] = target: Sigma intracellular receptor 2 (Homo sapiens, UniProt Q5BJF2); assay: Binding affinity to sigma 2 receptor (unknown origin) assessed as inhibition constant
# [38] = target: Sigma non-opioid intracellular receptor 1 (Homo sapiens, UniProt Q99720); assay: Binding affinity to sigma 1 receptor (unknown origin) assessed as inhibition constant
# [39] = target: T5, 5-hydroxytryptamine receptor 2A; assay: Displacement of [3H]-Ketanserin from rat cortical membrane 5-HT2A receptor; type: cell membranes, Cortex
# [40] = target: T10, Alpha-1A adrenergic receptor (Rattus norvegicus, UniProt P43140); assay: Displacement of [3H]prazosin from rat whole brain alpha1 adrenergic receptor; type: tissue-based
# T10 sequence (P43140 whole entry): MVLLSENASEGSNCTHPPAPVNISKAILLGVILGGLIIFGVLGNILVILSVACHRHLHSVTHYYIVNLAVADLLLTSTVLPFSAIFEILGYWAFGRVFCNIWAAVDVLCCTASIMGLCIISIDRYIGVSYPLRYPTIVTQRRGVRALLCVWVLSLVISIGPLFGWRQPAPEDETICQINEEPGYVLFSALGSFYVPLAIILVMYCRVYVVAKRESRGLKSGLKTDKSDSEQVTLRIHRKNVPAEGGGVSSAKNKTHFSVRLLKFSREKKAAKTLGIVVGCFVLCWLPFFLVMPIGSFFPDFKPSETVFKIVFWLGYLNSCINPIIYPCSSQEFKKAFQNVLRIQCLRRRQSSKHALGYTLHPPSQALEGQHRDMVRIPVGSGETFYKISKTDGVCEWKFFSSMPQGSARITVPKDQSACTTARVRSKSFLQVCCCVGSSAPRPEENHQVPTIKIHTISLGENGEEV
# D(2) dopamine receptor = D(2) dopamine receptor (Rattus norvegicus, UniProt P61169); assay: Displacement of [3H]-spiperone from rat striatal membrane D2 receptor; type: cell membranes, Striatum
# [41] = target: T5, 5-hydroxytryptamine receptor 2A; assay: Binding affinity to rat frontal cortex 5-HT2A assessed as dissociation constant; type: tissue-based
# [42] = target: T5, 5-hydroxytryptamine receptor 2A; assay: Binding affinity to rat frontal cortex 5-HT2A assessed as inhibition constant; type: tissue-based
# [43] = Drug uptake in cat striatum at 2.5 mCi, iv measured upto 90 mins by PET imaging; type: ADME, organism-based, Felis catus; settings: in vivo, 1.5 h
# [44] = Drug uptake in Cynomolgus monkey striatum at 4 mCi, iv measured upto 90 mins by PET imaging; type: ADME, organism-based, Macaca fascicularis; settings: in vivo, 1.5 h
# [45] = Ratio of drug uptake in human striatum to cerebellum; type: ADME, tissue-based
# [46] = Ratio of drug uptake in baboon striatum to cerebellum measured at 60 mins postinjection; type: ADME, organism-based, Papio; settings: in vivo, 1 h
# [47] = Ratio of drug uptake in human frontal cortex to cerebellum; type: ADME, tissue-based, Brain frontal cortex/cerebellum
# [48] = Ratio of drug uptake in baboon cerebral cortex to cerebellum measured at 60 mins postinjection; type: ADME, organism-based, Papio; settings: in vivo, 1 h
# [49] = target: T9, 5-hydroxytryptamine receptor 1F; assay: Binding affinity to human 5-HT1F assessed as inhibition constant
# [50] = target: T5, 5-hydroxytryptamine receptor 2A; assay: Antagonist activity at rat 5-HT2A receptor; type: functional
# [51] = Drug uptake in human brain; type: ADME, tissue-based
# [52] = target: 5-hydroxytryptamine receptor 4 (Homo sapiens, UniProt Q13639); assay: Binding affinity to 5-HT4 receptor (unknown origin) assessed as inhibition constant
# [53] = target: T2, 5-hydroxytryptamine receptor 6; assay: Binding affinity to 5-HT6 receptor (unknown origin) assessed as inhibition constant
# T6 sequence (P34969 whole entry): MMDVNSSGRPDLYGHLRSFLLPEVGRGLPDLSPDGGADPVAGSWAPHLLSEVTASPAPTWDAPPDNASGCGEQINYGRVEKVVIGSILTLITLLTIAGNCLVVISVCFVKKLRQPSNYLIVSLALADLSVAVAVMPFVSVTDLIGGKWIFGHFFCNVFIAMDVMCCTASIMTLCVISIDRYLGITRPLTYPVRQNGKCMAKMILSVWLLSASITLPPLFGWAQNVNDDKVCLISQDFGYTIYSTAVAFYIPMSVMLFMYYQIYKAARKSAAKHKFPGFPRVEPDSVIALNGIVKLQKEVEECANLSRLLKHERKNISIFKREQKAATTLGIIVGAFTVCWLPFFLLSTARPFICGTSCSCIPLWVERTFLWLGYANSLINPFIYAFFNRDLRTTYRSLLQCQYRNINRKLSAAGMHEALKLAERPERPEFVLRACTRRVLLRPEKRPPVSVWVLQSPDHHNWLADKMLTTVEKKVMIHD
# T1 sequence (P28223 whole entry): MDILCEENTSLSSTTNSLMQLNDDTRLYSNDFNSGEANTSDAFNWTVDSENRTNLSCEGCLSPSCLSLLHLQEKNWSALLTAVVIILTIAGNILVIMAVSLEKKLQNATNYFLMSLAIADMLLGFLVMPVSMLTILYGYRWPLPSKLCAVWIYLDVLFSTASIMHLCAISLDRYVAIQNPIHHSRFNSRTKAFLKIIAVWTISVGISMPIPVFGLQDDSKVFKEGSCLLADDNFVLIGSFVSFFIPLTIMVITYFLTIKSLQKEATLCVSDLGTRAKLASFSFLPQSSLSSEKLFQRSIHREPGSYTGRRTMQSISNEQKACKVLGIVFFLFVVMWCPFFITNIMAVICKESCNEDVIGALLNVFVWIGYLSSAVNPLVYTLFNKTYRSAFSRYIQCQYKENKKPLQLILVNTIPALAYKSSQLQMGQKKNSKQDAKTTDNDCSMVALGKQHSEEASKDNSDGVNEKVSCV
# T7 sequence (P28221 whole entry): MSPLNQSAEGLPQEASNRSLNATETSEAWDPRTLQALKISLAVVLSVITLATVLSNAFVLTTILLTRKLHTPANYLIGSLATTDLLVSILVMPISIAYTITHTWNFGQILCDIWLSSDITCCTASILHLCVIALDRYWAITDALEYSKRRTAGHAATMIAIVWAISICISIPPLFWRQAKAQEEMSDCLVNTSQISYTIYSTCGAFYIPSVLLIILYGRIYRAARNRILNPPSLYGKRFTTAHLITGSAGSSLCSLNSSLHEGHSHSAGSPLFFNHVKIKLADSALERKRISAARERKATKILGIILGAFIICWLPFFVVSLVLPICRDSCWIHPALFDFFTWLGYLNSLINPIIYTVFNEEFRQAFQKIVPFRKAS
# T3 sequence (P41595 whole entry): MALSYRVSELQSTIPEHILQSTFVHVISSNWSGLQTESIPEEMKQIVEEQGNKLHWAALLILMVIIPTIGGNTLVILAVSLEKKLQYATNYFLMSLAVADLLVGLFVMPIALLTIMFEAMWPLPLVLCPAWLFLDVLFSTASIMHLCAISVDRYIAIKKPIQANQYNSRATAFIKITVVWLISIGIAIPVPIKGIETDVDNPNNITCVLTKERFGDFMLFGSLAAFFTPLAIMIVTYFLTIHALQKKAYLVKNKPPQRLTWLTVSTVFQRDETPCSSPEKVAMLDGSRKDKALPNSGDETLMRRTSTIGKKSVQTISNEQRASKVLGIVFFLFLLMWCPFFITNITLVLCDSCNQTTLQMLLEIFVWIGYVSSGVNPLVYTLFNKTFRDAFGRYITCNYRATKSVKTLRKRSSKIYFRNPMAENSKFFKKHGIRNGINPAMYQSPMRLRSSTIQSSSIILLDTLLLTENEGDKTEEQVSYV
# T5 sequence (P14842 whole entry): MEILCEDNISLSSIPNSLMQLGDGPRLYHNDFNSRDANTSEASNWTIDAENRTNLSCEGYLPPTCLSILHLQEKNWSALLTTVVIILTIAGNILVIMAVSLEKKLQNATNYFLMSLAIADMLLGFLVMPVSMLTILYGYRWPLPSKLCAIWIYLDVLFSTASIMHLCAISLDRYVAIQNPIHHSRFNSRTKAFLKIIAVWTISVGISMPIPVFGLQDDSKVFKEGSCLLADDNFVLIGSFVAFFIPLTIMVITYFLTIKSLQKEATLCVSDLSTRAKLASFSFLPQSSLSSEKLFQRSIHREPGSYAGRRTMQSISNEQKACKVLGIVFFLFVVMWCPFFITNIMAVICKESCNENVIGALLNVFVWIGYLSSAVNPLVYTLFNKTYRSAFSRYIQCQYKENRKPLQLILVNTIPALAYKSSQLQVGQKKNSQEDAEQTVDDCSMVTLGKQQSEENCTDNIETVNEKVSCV
# Sequence of 5-hydroxytryptamine receptor 5A (P47898 whole entry): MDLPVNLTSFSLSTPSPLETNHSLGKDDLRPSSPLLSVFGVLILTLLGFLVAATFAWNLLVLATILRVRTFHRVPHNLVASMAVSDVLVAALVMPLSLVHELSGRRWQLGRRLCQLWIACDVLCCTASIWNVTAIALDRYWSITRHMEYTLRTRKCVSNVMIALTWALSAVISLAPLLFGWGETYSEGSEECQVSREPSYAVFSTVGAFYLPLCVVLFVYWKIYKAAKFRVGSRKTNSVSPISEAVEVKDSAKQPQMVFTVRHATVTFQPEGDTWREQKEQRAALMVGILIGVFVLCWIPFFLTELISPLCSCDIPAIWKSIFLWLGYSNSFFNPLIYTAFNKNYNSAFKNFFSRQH
# T2 sequence (P50406 whole entry): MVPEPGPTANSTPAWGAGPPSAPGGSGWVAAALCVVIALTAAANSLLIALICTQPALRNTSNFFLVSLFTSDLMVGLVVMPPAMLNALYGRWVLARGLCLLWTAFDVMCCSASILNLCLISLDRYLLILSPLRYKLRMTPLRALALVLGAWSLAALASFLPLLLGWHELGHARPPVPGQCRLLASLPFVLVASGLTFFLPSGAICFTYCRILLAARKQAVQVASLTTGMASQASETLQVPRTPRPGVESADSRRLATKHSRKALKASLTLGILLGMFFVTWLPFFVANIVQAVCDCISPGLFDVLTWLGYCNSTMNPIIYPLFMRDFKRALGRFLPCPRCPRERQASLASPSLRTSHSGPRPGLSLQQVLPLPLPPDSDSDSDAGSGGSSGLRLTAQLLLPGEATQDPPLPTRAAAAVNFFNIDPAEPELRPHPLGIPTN
# T9 sequence (P30939 whole entry): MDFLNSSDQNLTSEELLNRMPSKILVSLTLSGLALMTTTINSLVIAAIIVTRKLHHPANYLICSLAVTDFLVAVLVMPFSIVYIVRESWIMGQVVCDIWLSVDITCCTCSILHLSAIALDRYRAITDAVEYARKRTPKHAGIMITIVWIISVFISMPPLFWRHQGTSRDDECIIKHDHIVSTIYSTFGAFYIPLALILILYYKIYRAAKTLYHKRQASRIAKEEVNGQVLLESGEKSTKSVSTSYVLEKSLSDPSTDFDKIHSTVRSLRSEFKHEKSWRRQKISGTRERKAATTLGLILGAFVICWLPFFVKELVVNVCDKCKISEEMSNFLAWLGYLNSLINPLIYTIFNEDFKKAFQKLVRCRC
# Sequence of Sigma intracellular receptor 2 (Q5BJF2 whole entry): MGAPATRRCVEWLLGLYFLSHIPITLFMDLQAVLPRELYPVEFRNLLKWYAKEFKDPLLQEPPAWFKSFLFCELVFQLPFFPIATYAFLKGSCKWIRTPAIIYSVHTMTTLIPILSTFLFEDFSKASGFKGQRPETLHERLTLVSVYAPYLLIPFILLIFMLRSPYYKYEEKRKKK
# Sequence of D(2) dopamine receptor (P61169 whole entry): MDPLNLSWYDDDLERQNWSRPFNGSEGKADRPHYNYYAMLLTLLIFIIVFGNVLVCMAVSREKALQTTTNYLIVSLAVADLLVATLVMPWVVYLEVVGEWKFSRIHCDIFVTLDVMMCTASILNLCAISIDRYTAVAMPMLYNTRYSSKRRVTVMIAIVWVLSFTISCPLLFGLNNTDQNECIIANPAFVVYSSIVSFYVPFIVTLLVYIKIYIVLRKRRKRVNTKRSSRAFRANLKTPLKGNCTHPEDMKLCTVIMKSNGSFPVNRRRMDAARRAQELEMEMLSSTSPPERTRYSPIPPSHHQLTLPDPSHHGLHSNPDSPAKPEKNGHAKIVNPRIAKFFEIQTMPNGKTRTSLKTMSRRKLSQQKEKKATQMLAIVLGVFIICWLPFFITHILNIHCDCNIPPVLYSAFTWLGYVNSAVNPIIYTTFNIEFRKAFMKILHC
# Sequence of 5-hydroxytryptamine receptor 1B (P28222 whole entry): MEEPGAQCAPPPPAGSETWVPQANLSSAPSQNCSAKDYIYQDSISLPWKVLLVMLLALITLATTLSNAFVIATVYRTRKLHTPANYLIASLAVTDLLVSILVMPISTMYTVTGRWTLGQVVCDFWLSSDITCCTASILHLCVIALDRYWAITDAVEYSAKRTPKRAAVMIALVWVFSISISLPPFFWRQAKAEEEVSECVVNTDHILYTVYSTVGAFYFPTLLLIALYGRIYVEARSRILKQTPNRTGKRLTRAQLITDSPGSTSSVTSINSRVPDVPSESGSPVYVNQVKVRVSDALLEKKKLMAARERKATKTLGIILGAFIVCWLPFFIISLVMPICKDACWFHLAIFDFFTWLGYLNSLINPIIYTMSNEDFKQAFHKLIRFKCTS
# Sequence of Sigma non-opioid intracellular receptor 1 (Q99720 whole entry): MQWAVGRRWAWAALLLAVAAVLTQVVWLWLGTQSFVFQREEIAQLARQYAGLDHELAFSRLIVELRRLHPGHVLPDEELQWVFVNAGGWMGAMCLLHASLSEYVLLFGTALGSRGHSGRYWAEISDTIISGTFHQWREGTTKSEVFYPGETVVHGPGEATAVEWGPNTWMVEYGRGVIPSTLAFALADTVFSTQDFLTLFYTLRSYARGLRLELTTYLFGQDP
smiles,measurement,setting,value
[11CH3]N1CCN(c2cccc3cc(S(=O)(=O)c4cccc(F)c4)cnc23)CC1,Ki,[1],0.16 nM
same,Drug uptake,[2],10.5 %Idose/L
same,Drug uptake,[3],3.5 %Idose/L
same,Ki,[4],0.79 nM
same,Drug uptake,[5],11.5 %Idose/L
COc1cc(CCNCc2ccccc2OC)c(OC)cc1I,Ki,[6],2.3 nM
same,Ki,[7],7 nM
same,Ki,[8],2.2 nM
CC1CCN(CC[C@H]2CCCN2S(=O)(=O)c2cccc(OCC[18F])c2)CC1,Ki,[9],0.75 nM
COc1cc(CCNCc2ccccc2O[11CH3])c(OC)cc1Br,Ki,[10],1.7 nM
same,Drug uptake,[11],0.62
same,Ki,[12],0.5 nM
same,SUV,[13],0.8
COc1ccc(-c2c([N+](=O)[O-])ccn2C)cc1,Ki,[14],16.8 nM
CNC(=O)c1ccc2c(c1)CCO[C@H]2CCN1CCN(c2ccc(C(N)=O)cc2)CC1,Ki,[15],6 nM
same,Ki,[16],> 18000 nM
COc1cccc([C@H](O)C2CCN(CCc3ccc([18F])cc3)CC2)c1OC,Drug uptake,[17],> 94%
CN1CCC(C(=O)c2cccc(NC(=O)c3c(F)cc(F)cc3F)n2)CC1,Ki,[18],> 592 nM
same,Ki,[19],> 590 nM
same,Ki,[20],2.21 nM
same,Ki,[16],> 593 nM
same,Ki,[21],> 591 nM
same,Ki,[22],> 590 nM
same,Ki,[23],> 594 nM
same,Ki,[24],> 595 nM
COc1c(OCC[18F])cccc1[C@H](O)C1CCN(CCc2ccc(F)cc2)CC1,Drug uptake,[25],1.45
same,Ratio,[26],2.7
c1ccc(CN2CCN(c3nc4ccsc4n4cccc34)CC2)cc1,Ki,[27],1 nM
COc1c(OCC[18F])cccc1C(O)C1CCN(CCc2ccc(F)cc2)CC1 (racemic),Drug uptake,[28],1.5
same,Ratio,[29],3.2
[11CH3]N1CCc2nc3ccnn3c(N3CCC3)c2CC1,Ki,[30],75 nM
same,Ki,[31],161 nM
same,Ki,[32],> 1000 nM
same,Ki,[33],> 1000 nM
COc1ccc(C(=O)N(Cc2ccc(C)cc2)C2CCN(C)CC2)cc1,Ki,[34],2.5 nM
same,Ki,[35],2.1 nM
COc1cccc(S(=O)(=O)N2CCC[C@@H]2CCN2CCC(C)CC2)c1,Ki,[36],18 nM
same,Ki,[37],1.6 nM
same,Ki,[38],9.2 nM
Cc1ccc2c(c1)c(-c1ccc(F)cc1)c(C)n2C1CCN(C)CC1,Ki,[39],5.3 nM
same,Ki,[40],2700 nM
same,Ki,D(2) dopamine receptor,2600 nM
CC1(NC(=O)c2ccc(N)cc2)CCN(CCCOc2ccc(F)cc2)CC1,Kd,[41],0.11 nM
same,Ki,[42],0.2 nM
CC(c1cnc2c(N3CCN(C)CC3)cccc2c1)S(=O)(=O)c1ccccc1[18F] (stereo unspecified),SUVmax,[43],4.5
same,SUVmax,[44],2.5
Cc1nc2n(c(=O)c1CCN1CCC(C(=O)c3ccc([18F])cc3)CC1)CCS2,Ratio,[45],2.38
same,Ratio,[46],3.5
same,Ratio,[47],2.53
same,Ratio,[48],3
CN(C)[C@@H]1CCc2[nH]c3ccc(NC(=O)c4ccc(F)cc4)cc3c2C1,Ki,[18],> 500 nM
same,Ki,[19],> 500 nM
same,Ki,[16],> 500 nM
same,Ki,[49],6 nM
same,Ki,[22],> 500 nM
same,Ki,[23],> 500 nM
same,Ki,[24],> 500 nM
COc1cccc(CCc2ccccc2OCC[C@@H]2C[C@@H](O)CN2C)c1,Ki,[50],0.79 nM
[11CH3]N1CCC(COC(=O)c2cc(Cl)c(N)c3c2OCCO3)CC1,SUVmax,[51],28 kBq/cm3
same,Ki,[52],0.3 nM
CN(C)CCOc1cccc2c1ccn2S(=O)(=O)c1ccc([18F])cc1,Ki,[53],4 nM
